Where two headings read alike, the source gives them in different places.
Experiments:
Assay type in all cases: biochemical
aggrecanase-1 = target: T1, aggrecanase-1 (Homo sapiens, UniProt O75173); assay: Aggrecanase-1 inhibitory action (Particle Assay, GAG release from aggrecan-containing polyacrylamide particles)
T1 sequence (O75173 213-837): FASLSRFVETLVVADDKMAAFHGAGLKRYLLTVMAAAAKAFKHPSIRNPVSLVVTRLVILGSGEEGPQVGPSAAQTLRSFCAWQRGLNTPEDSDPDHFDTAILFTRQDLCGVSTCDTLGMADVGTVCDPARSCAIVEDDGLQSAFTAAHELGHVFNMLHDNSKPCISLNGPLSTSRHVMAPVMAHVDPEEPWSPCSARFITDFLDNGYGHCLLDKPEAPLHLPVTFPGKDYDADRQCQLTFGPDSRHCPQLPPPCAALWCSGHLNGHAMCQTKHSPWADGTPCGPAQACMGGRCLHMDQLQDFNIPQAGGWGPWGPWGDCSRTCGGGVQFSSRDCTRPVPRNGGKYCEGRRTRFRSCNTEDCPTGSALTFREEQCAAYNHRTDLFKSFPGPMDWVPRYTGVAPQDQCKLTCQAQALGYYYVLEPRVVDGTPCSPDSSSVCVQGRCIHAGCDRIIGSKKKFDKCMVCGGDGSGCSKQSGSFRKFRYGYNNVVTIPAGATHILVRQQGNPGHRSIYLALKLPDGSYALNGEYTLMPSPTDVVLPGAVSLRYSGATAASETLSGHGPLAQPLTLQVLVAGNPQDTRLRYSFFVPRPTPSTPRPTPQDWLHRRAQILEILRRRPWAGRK
Method in brief: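 Enzyme and compound incubated with aggrecan-containing polyacrylamide particles in Tris-HCl buffer at 37° C for 15 h. Released GAG in supernatant measured with 1,9-dimethylmethylene blue at 595 nm against chondroitin sulfate standard; % inhibition from enzyme-free and inhibitor-free wells, reported as TC50 (μM).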

MMP-1 = target: T2, MMP-1 (Homo sapiens, UniProt P03956); assay: MMP-1 inhibitory action (Type I collagen Activity Measurement kit, FITC-labeled collagen type I)
T2 sequence (P03956 100-469): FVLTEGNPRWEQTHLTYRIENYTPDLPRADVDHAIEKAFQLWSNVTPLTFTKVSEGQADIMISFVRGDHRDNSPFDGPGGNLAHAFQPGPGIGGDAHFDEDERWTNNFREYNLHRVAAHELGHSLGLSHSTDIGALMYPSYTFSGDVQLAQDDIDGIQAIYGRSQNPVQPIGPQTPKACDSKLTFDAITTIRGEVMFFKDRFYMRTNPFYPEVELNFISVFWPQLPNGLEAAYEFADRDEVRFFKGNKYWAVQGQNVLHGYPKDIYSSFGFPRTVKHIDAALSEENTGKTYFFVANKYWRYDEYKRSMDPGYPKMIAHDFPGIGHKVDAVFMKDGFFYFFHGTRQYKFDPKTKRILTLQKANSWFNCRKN

Recombinant Human MMP-13 = target: T3, Recombinant Human MMP-13 (Homo sapiens, UniProt P45452); assay: MMP-13 inhibitory activity (MMP-13 specific fluorescent substrate with quencher)
T3 construct: purchased R&D systems 511-MM
Method in brief: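 Recombinant human MMP-13 with test compound, reaction started with quenched fluorogenic peptide 7-MCA-Pro-CHA-Gly-NVal-His-Ala-DPA in Tris-HCl buffer, 1 h at 25 °C, stopped with acetic acid. Fluorescence at Ex 325/Em 405 nm; % inhibition versus enzyme-free and inhibitor-free wells, reported as IC50 (μM).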

[1] = aggrecanase-1 inhibitory action, read-out: IC50 AG1 (Experimental Example 1)
[2] = MMP-1 inhibitory action, FITC-labeled collagen type I, 37° C. for 3 hr, read-out: IC50 MMP1 (Experimental Example 2)
[3] = Recombinant Human MMP-13, fluorescent substrate, 25° C. for 1 h, read-out: IC50 MMP13 (Experimental Example 3)
[4] = Experimental Example 1, read-out: IC50 AG1
[5] = Experimental Example 2, read-out: IC50 MMP1
[6] = Experimental Example 3, read-out: IC50 MMP13

For CC(C)(C)OC(=O)N1CC=C(c2ccc(S(=O)(=O)N[C@@]3(C(=O)O)C[C@@H]3c3ccccc3)s2)CC1 [Example 2, 4-[5-((1S,2R)-1-carboxy-2-phenyl-cyclopropanesulfamoyl)-thiophene-2-yl]-3,6-dihydro-2H-pyridin-1-carboxylic acid t-butyl ester], the IC50 (aggrecanase-1; [1]) was ≥ 1000 nM, the IC50 (MMP-1; [2]) was ≥ 10000 nM and the IC50 (Recombinant Human MMP-13; [3]) was ≥ 10000 nM.
In the case of O=C(O)C1(NS(=O)(=O)c2ccc(-c3ccc(Cl)cc3)s2)CC1c1ccccc1 (stereo not drawn) [Example 1-69], the IC50 (aggrecanase-1; [1]) is reported as < 100 nM, the IC50 (MMP-1; [2]) is reported as ≥ 10000 nM and the IC50 (Recombinant Human MMP-13; [3]) is reported as < 1000 nM.
With O=C(CCc1ccccc1C1CC1(NS(=O)(=O)c1ccc(-c2cc(C(F)(F)F)on2)s1)C(=O)O)N1CCOCC1 (stereo not drawn) [Example 2-230] the IC50 (aggrecanase-1; [1]) was < 1000 nM, the IC50 (MMP-1; [2]) was ≥ 10000 nM and the IC50 (Recombinant Human MMP-13; [3]) was < 100 nM.
In the case of O=C(O)C1(NS(=O)(=O)c2cn3cc(-c4ccc(F)cc4)nc3s2)CC1c1ccccc1 (stereo not drawn) [Example 2-491], the IC50 (aggrecanase-1; [4]) is reported as ≥ 1000 nM, the IC50 (MMP-1; [5]) is reported as ≥ 10000 nM and the IC50 (Recombinant Human MMP-13; [6]) is reported as < 100 nM.
O=C(NC[C@H]1CCCO1)OCC1(c2ccccc2)CC1(NS(=O)(=O)c1ccc(-c2cc(C(F)(F)F)on2)s1)C(=O)O (stereo partly drawn) [Example 2-309] was tested, and the IC50 (aggrecanase-1; [4]) was < 1000 nM, the IC50 (MMP-1; [5]) was ≥ 1000 nM and the IC50 (Recombinant Human MMP-13; [6]) was < 1000 nM.
With CC1[C@H](c2ccccc2)[C@]1(NS(=O)(=O)c1ccc(-c2cn3cccnc3n2)s1)C(=O)O (stereo partly drawn) [Example 2-571] the IC50 (aggrecanase-1; [4]) was ≥ 1000 nM, the IC50 (MMP-1; [5]) was ≥ 1000 nM and the IC50 (Recombinant Human MMP-13; [6]) was < 1000 nM.
Cc1ccc(-c2ccc(S(=O)(=O)N[C@@]3(C(=O)O)C[C@@H]3c3ccccc3)s2)s1 [Example 2-39] was tested, and the IC50 (aggrecanase-1; [1]) was < 1000 nM, the IC50 (MMP-1; [2]) was ≥ 1000 nM and the IC50 (Recombinant Human MMP-13; [3]) was < 100 nM.
CN(Cc1cccnc1)c1cccc(C2CC2(NS(=O)(=O)c2ccc(-c3cc(C(F)(F)F)on3)s2)C(=O)O)c1 (stereo not drawn) [Example 2-214] was tested, and the IC50 (aggrecanase-1; [1]) was < 100 nM, the IC50 (MMP-1; [2]) was < 1000 nM and the IC50 (Recombinant Human MMP-13; [3]) was < 100 nM.
With CC1CCC(N2CCN(S(=O)(=O)N[C@@]3(C(=O)O)C(C)[C@@H]3c3ccccc3)CC2)CC1 (stereo partly drawn) [Example 2-442] the IC50 (aggrecanase-1; [4]) was ≥ 1000 nM, the IC50 (MMP-1; [5]) was ≥ 10000 nM and the IC50 (Recombinant Human MMP-13; [6]) was ≥ 1000 nM.
C[C@]1(c2ccccc2)C[C@@]1(NS(=O)(=O)c1ccc(-c2ccc(O)c(F)c2)s1)C(=O)O [Example 2-589] was tested, and the IC50 (aggrecanase-1; [4]) was < 1000 nM, the IC50 (MMP-1; [5]) was ≥ 1000 nM and the IC50 (Recombinant Human MMP-13; [6]) was ≥ 1000 nM.
In the case of CCNC(=O)N1CCN(S(=O)(=O)N[C@@]2(C(=O)O)C[C@@H]2c2ccccc2)CC1 [Example 2-512], the IC50 (aggrecanase-1; [4]) is reported as ≥ 1000 nM, the IC50 (MMP-1; [5]) is reported as ≥ 1000 nM and the IC50 (Recombinant Human MMP-13; [6]) is reported as ≥ 1000 nM.
For CC1[C@H](c2ccccc2)[C@]1(NS(=O)(=O)N1Cc2ccc(Br)cc2C1)C(=O)O (stereo partly drawn) [Example 2-505], the IC50 (aggrecanase-1; [4]) was ≥ 1000 nM, the IC50 (MMP-1; [5]) was ≥ 1000 nM and the IC50 (Recombinant Human MMP-13; [6]) was < 1000 nM.
O=C(O)C1(NS(=O)(=O)c2ccc(-c3ccc(Cl)cc3)s2)CC1(COCc1ccccc1)c1ccccc1 (stereo not drawn) [Example 2-356] was tested, and the IC50 (aggrecanase-1; [4]) was < 1000 nM, the IC50 (MMP-1; [5]) was < 1000 nM and the IC50 (Recombinant Human MMP-13; [6]) was < 1000 nM.
For O=C(O)[C@]1(NS(=O)(=O)c2ccc(-c3ccc(Cl)cc3)s2)C[C@@H]1c1cccc(CO)c1 [Example 2-182], the IC50 (aggrecanase-1; [1]) was < 100 nM, the IC50 (MMP-1; [2]) was ≥ 10000 nM and the IC50 (Recombinant Human MMP-13; [3]) was < 100 nM.
With O=C(O)C1(NS(=O)(=O)N2CCC(Oc3ccc(F)cc3)CC2)CC1c1ccccc1 (stereo not drawn) [Example 2-145] the IC50 (aggrecanase-1; [1]) was ≥ 10000 nM, the IC50 (MMP-1; [2]) was ≥ 10000 nM and the IC50 (Recombinant Human MMP-13; [3]) was ≥ 1000 nM.
For CC1[C@H](c2ccccc2)[C@]1(NS(=O)(=O)N1CCC(OCc2cc(Cl)ccc2Cl)C1)C(=O)O (stereo partly drawn) [Example 2-551], the IC50 (aggrecanase-1; [4]) was ≥ 1000 nM, the IC50 (MMP-1; [5]) was ≥ 1000 nM and the IC50 (Recombinant Human MMP-13; [6]) was ≥ 1000 nM.
For O=C(O)C1(NS(=O)(=O)N2CC=C(c3ccccc3)CC2)CC1c1ccccc1 (stereo not drawn) [Example 2-148], the IC50 (aggrecanase-1; [1]) was ≥ 1000 nM, the IC50 (MMP-1; [2]) was ≥ 10000 nM and the IC50 (Recombinant Human MMP-13; [3]) was < 1000 nM.
In the case of COCCN(C)C(=O)c1ccccc1C1CC1(NS(=O)(=O)c1ccc(-c2ccc(Cl)cc2)s1)C(=O)O (stereo not drawn) [Example 2-71], the IC50 (aggrecanase-1; [1]) is reported as < 100 nM, the IC50 (MMP-1; [2]) is reported as ≥ 10000 nM and the IC50 (Recombinant Human MMP-13; [3]) is reported as < 1000 nM.
In the case of CN1CCN(Cc2cccc(C3CC3(NS(=O)(=O)c3ccc(-c4ccc(Cl)cc4)s3)C(=O)O)c2)CC1 (stereo not drawn) [Example 1-103], the IC50 (aggrecanase-1; [1]) is reported as < 1000 nM, the IC50 (MMP-1; [2]) is reported as ≥ 10000 nM and the IC50 (Recombinant Human MMP-13; [3]) is reported as < 1000 nM.
For O=C(O)C1(NS(=O)(=O)c2ccc(-c3ccc(Cl)cc3)s2)CC1c1cccc(NS(=O)(=O)C(F)(F)F)c1 (stereo not drawn) [Example 1-132], the IC50 (aggrecanase-1; [1]) was < 100 nM, the IC50 (MMP-1; [2]) was ≥ 1000 nM and the IC50 (Recombinant Human MMP-13; [3]) was < 100 nM.

From patent US20080261994A1, “CYCLOPROPANE COMPOUNDS AND PHARMACEUTICAL USE THEREOF” (Japan Tobacco Inc., priority 2003, published 2008)
